# According to patent publication US7488716B2 (priority 2001, dated 2009):
# Where no end group is shown, it is not given here.
# What was measured:
# [1] = system: glucagon-mediated elevation in blood glucose; assay: Glucagon-stimulated glucose production in fed Wistar rats; type: in vivo, rat; settings: iv, 0.3 nmol/kg glucagon plus 1 nmol/kg peptide
# Procedure: The anesthesia was withdrawn and the conscious rats were tail-bled again after 10, 20 and 30 min.
# Glucose inhibition was determined by analyzing the area under the glucose curve after subtracting the basal glucose level (dAUC).
# perfused rat islets = assay: Insulin secretion by perfused rat islets; type: cell-based; settings: 50 nM peptide, 8 mM glucose
# Procedure: Sprague Dawley rats (275-320 g) were used as the source of donor islets. Briefly, the pancreas was filled with 10 ml of cold reconstituted Liberase RI (Boehringer Manheim), harvested and incubated with additional 5 ml enzyme solution in water bath for 30 minutes. Tissue suspension was washed twice with cold 10% FBS/Hanks buffer (Gibco), resuspended in 8 ml 25% ficoll (Sigma) and then layered with 5 ml each of 23%, 20% and 11% ficoll. The islets in the 20% layer after centrifugation were removed, washed twice with cold 10% FBS/Hank buffer and resuspended in 10% FBS/RPMI 1640 media (Sigma).
# Insulin secretion of perfused rat islets mediated by some peptides of the invention was measured as follows. The bi-phasic responses of insulin release stimulated by these polypeptides were tested by islet perfusion. Fifty islets were loaded in the perifusion chamber and perifused with HEPES-KRB containing 3 mM glucose at 37° C. After 60 min, islets were exposed to buffer containing 8 mM glucose with or without peptide (50 nM) and perifused for another 30 min. Fractions of perifusate were collected at 1 or 5 minute intervals for insulin determination. Insulin was measured using an ELISA kit (Alpco Diagnostics, Windham, N.H.).
# rat hepatocytes = assay: Glucose release from rat hepatocytes (inhibition of glucagon mediated glucose production); type: cell-based; settings: 1 nM glucagon, 100 nM peptide, 3 trials
# Procedure: Hepatocytes were isolated according to a modified procedure of Berry and Friend (J. Cell. Biol. 43:506, 1969). A fed male Wistar rat was anesthetized with sodium pentobarbital (55 mg/kg, i.p.). The rat was placed on its back on the tray of the liver perfusion apparatus (37° C.), and its limbs were secured with laboratory tape. The ventrical surface was cleaned with 70% alcohol, and the abdominal cavity was opened with scissors to expose the liver, portal vein, hepatic artery and the posterior vena cava. Ligatures were placed loosely around the three vessels. A cannula was inserted into the portal vein and was secured with the ligature. […] An aliquot of cells was diluted with buffer, stained with 0.4% Trypan Blue and counted. […]
# Rat hepatocytes were added into a flat bottom 96 well plate (2×10^5/100 μl/well) and pre-incubated in a 37° C. incubator with constant shaking and under 95% O2/5% CO2 flow for 10 minutes. […] The resulting supernatant was analyzed for glucose with hexokinase and glucose-6-phosphate dehydrogenase (Methods of Enzymatic Analysis, H. U. Bermeyer, Ed., Academic Press) and the A340 read on a fMAX plate reader (Molecular Devices, Sunnyvale, Calif.).
# Glucose output was calculated after subtracting the amount of glucose produced in the unstimulated hepatocytes from each data point and the percent inhibition was calculated.
# GLP-1 receptor [2] = target: T1, GLP-1 receptor (Rattus norvegicus, UniProt P32301); assay: Peptide signaling through GLP-1 receptor, cAMP scintillation proximity assay in RINm5F cells; type: cell-based
# T1 construct: endogenous in cells; host or cells: RINm5F cells
# T1 sequence (P32301 22-463): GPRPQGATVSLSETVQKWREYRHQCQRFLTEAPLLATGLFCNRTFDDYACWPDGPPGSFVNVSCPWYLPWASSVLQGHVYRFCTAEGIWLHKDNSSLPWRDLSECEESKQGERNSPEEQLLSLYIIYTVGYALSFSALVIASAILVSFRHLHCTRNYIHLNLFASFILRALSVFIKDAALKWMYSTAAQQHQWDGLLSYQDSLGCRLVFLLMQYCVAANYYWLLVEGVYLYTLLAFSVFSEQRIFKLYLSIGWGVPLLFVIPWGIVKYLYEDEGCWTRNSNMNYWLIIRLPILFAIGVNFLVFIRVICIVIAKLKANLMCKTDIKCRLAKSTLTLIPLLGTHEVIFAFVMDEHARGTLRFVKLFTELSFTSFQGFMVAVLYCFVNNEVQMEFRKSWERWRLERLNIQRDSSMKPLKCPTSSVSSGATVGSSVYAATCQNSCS
# In short: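 RINm5F cells were exposed to peptide, with BSA omitted from the incubation buffer for fatty-acid-conjugated peptides, then lysed. Lysate cAMP (pmol) was measured by scintillation proximity assay, and EC50 was obtained by nonlinear regression of cAMP versus peptide concentration.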
# GLP-1 receptor [3] = target: T1, GLP-1 receptor; assay: Competitive binding of peptide to the GLP-1 receptor in RINm5F cell plasma membranes (125I GLP-1); settings: read-out: GLP1 RIN IC50
# glucagon receptor = target: T2, glucagon receptor (Rattus norvegicus, UniProt P30082); assay: Competitive binding of peptide to the glucagon receptor in rat liver plasma membranes (125I glucagon)
# T2 construct: glucagon receptor present in the plasma membranes isolated from rat liver; from tissue; host or cells: rat liver plasma membranes
# T2 sequence (P30082 27-485): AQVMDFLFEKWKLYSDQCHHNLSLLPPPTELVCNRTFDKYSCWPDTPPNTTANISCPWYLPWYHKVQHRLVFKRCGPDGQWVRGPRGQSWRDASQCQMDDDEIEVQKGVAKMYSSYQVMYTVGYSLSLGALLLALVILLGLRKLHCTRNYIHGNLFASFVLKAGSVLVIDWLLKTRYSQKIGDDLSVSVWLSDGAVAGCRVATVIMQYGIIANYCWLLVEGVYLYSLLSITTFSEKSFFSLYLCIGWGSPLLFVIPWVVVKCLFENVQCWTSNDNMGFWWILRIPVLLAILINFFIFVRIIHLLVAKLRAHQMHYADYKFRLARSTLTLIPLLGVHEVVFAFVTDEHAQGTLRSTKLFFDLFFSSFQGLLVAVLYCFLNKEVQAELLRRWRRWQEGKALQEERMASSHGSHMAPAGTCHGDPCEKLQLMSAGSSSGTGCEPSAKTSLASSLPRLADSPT
substance,measurement,setting,value
HSQGTFTSDYAKYLDARRAKEFIAWLVKGR-NH2 [G27],Inhibition of glucagon-mediated elevation in blood glucose (dAUC),[1],63%
same,Increase of insulin secretion from perfused islets,perfused rat islets,approximately 2 fold
same,Inhibition of glucagon mediated glucose production,rat hepatocytes,47%
same,GLP1 Relative Potency,"GLP-1 receptor [2]; EC50 of native GLP-1 (7-36) divided by EC50 of polypeptide x 100, cAMP in RINm5F cells",13.4%
same,Emax,"GLP-1 receptor [2]; RIN-m5F, read-out: % GLP1 max",98.1%
same,IC50,GLP-1 receptor [3],2.2 nM
same,IC50,glucagon receptor,69.3 nM
